The values below are quoted from earlier work in patent US20020048596A1, “PREPARATION FOR THE TRANSPORT OF AN ACTIVE SUBSTANCE ACROSS BARRIERS” (priority 1999, published 2002).

Like-named read-outs stand apart in the source and are kept apart here.

On to `CCCCCCCCCC(=O)OC[C@H](COP(=O)([O-])OCC[N+](C)(C)C)OC(=O)CCCCCCCCC` [didecanoyl phosphatidyl choline], for which the CMC entry (unit not given) is “CMC ∞ 10^−6”.

For the compound `CC(C)Cc1ccc(C(C)C(=O)O)cc1` (stereo not shown) [ibuprofen, reference compound], the solubility entry is listed as “ibuprofen, solubility ≦ 5 × 10^−5M”.

Turning to “distearoyl glycerophosphoethanolamine triazopolyethylene glycol (5000)”, the CMC result (in water / suspension medium) was “CMC = 10^−5M”.

In the case of distearoyl phosphomaltobionamide, the CMC entry (in water / suspension medium) is given as “CMC = 10^−5 M”.
